Results reported in patent US11452292B2, “Biofilm inhibitor and method of inhibiting biofilm” (NDSU Research Foundation, priority 2017, dated 2022).
≈ marks a conversion by molar mass, not a printed value. Where “and” joins values, the source holds several entries; their conditions need not be identical. Identical values can stand only once. Entries after “also recorded” stand apart in the source; their conditions may differ. Like-named read-outs stand apart in the source and are kept apart here.

How the values were obtained:
[1] = system: S. marcescens; test: Biofilm in silicone tubing, EAA flush, ATP assay; conditions: 5 mg/ml EAA
[2] = system: C. sakazakii; test: Biofilm amounts, CV assay, 24-well polystyrene plate; type: cell-based; conditions: Cronobacter sakazakii, 37° C.
Description: (§1) Data were expressed as OD600.

[3] = system: S. marcescens; test: as above; type: cell-based; conditions: Serratia marcescens, 30° C.
Description: as §1

[4] = system: Cronobacter sakazakii, Serratia marcescens, and Yersinia enterocolitica; test: Growth and biofilm assays, summary over the three pathogens
[5] = system: P. aeruginosa; test: Viable cell counts in the liquid collected from the tubing before each treatment
[6] = system: tested bacterial pathogens; test: Biofilm in silicone tubing, EAA flush, ATP assay, summary over strains; type: cell-based
Description: (§2) An AV Fistula Needle 17 Ga.

[7] = system: E. coli; conditions: cited from earlier work
[8] = system: S. aureus; test: Biofilm in silicone tubing, EAA flush, ATP assay; type: cell-based, Staphylococcus aureus
Description: as §2

[9] = system: Y. enterocolitica; test: Biofilm in silicone tubing, EAA flush, ATP assay
[10] = system: S. enterica; conditions: cited from earlier work
[11] = system: total bacterial count; test: Ground beef at 10° C., total bacterial count on PCA plates; type: cell-based; conditions: for total bacterial count in the presence of EAA: day 3, unsupplemented 9 log10; for Different from 0% (concentrations grouping differently from untreated control, Fisher's LSD and t-test): PCA, total bacterial count
Method: Ground beef was obtained from the NDSU Meat Lab (ag.ndsu.edu/ansc/facilities/shepperd-arena). Precautionary steps that the slaughter facility undertakes to prevent microbial contamination of muscle meat include rinses of the hot carcass with hot water and 2.5% lactic acid (Birko Corp., Henderson, Colo.). Prior to cutting the meat, cattle halves are incubated for two weeks at a temperature between 0 and 2.2° C. For this Example, meat from two animals was ground within the NDSU Meat Lab and consecutively transferred on ice to the research lab where this Experiment was conducted. Approximately 4 pound of ground meat was obtained from two independent slaughter events (FIG. 6). These two original meat samples are referred to as biological replicates throughout this study. Each biological replicate was weighed into five aliquots of 200 g that were supplemented with 0 g, 0.1 g, 0.5 g, 1 g, or 5 g of liquid EAA (Alfa Aesar, Ward Hill Mass.). A total of six aliquots of 10 g were produced from each 200 g aliquot to allow for two technical replicates and determination of bacterial counts at three different time points during the incubation period. Aliquots were stored in Ziploc bags at −20° C.
Meat samples were removed from the freezer and incubated at 10° C. for five days; bacterial counts were determined on days 1, 3, and 5. For one initial experiment, samples were removed after 1 h of incubation at 10° C. This aliquot is not included in FIG. 6.
The content of each bag was transferred into a stomacher bag and Maximum Recovery Diluent (MRD) was added to a total of 50 ml. Meat was homogenized in a Seward Stomacher 400 Circulator (Cole Parmer, Vernon Hills, Ill.). The total bacterial count of each homogenate was determined by plating serial dilutions on Plate Count Agar (PCA). Pseudomonads were determined with Pseudomonas Selective Agar (PSA), lactobacilli with All Purpose Tween agar (APT), B. thermospacta with Streptomycin sulphate, Thallous Acetate and Actidione agar (STAA), and Enterobacteriaceae with Violet Red Bile Glucose agar (VRBG). For the composition of these media, see TABLE 7 (BD: Becton Dickinson). Each serial dilution was plated onto two separate agar plates to allow for two plate replicates (FIG. 6).
Each experiment was performed in a total of 8 replicates (2 biological replicates×2 technical replicates×2 plate replicates). To prepare for analysis, the data sets were pre-processed by determining the averages for the 2 plate replicates. Data were analyzed for each EAA concentration and selective media and expressed as CFU/g of meat or log10 CFU/g of meat. The lower limit of detection was 49 CFU, which is the equivalent of 1.69 log10. This number was used for all experiments that yielded zero colonies from the undiluted homogenate. To determine log reductions, the log10 CFU/g of meat at a given concentration of EAA was subtracted from that obtained for the untreated control piece of meat. Average and standard errors were calculated across the two biological and two technical replicates. Statistical analysis was started with an Analysis of Variance (ANOVA) test that compared the means of the log10 CFU/g data across concentrations, days, and biological replicates to determine the main effects. For comparisons that determined statistically significant differences between the means (p-value below 0.05), Fisher's Least Significant Difference (LSD) test and a pairwise Student's t-test were performed as post hoc test to determine which of the groups were different from the others.

[12] = system: P. aeruginosa; test: Biofilm in silicone tubing, EAA flush, ATP assay
[13] = system: Y. enterocolitica; test: Planktonic growth (maximal velocity of OD600) in TSB; type: cell-based, Yersinia enterocolitica; conditions: for IC50: Yersinia enterocolitica, Y. enterocolitica
Method: The IC50 values were calculated using […] software (Hitachi Solutions, San Bruno, Calif.).

[14] = system: P. aeruginosa; test: Viable cell counts from the biofilms in silicone tubing; conditions: 100 mg/ml of EAA, end of two week incubation
[15] = system: P. aeruginosa; test: Biofilm in silicone tubing, EAA flush, CV assay; conditions: 100 mg/ml EAA
[16] = system: S. marcescens; test: Biofilm amounts, ATP assay, 24-well polystyrene plate; type: cell-based; conditions: Serratia marcescens, 30° C.
[17] = system: isolated bovine corneas; conditions: cited from earlier work
[18] = system: S. enterica; type: cell-based, Salmonella enterica serovar Typhimurium

In the case of `CCOC(=O)CC(C)=O` [EAA, ethyl acetoacetate], the “reduction in ATP content of the biofilm” value [1] is reported as ~100%, the IC50 [2] is reported as 700 µg/mL (≈ 5.38 mM) and the IC50 [3] is reported as 5600 µg/mL (≈ 43 mM). The IC50 ([4]; read-out: IC50 values for biofilm amounts (summary)) was ~1000 µg/mL (≈ 7.68 mM), the IC50 ([4]; read-out: IC50 values, range over all experiments) was 310 to 5600 µg/mL (≈ 2.38 to 43 mM) and the “reduction of growth, biofilm amounts and live bacterial cell counts” value ([4]; three pathogens, maximal reduction) was “up to 3 logs”. For the same compound, the “difference in viable cells in the liquid, EAA vs media flush” value ([5]; before the 2nd treatment, 100 mg/ml of EAA as first treatment) was < 2 log, the “increase in viable cells in the liquid, EAA vs media flush” value ([5]; before the 4th treatment, 3 treatments of 100 mg/ml of EAA) was ~1 log and the “difference in cell numbers, EAA vs media control” value ([5]; before the third treatment, two treatments of 100 mg/ml of EAA) was “approximately 2 logs”. The “reductions of ATP, all strains except S. marcescens” value ([6]; 10 mg/ml EAA) was ≥ 80%, the “reduction of ATP content of the biofilm, almost all tested pathogens” value ([6]; 100 mg/ml of EAA flush) was 100% and the “reduction of ATP content depending on the strain” value ([6]; 10 and 100 mg/ml EAA) was 90-99%. The mutagenicity [7] was “a mutagenic effect could be detected”, the “percent reduction of ATP” value ([8]; 100 mg/ml EAA) was 75% and 76% and the “ATP assay of the biofilm at the end of the two week incubation” value ([8]; 100 mg/ml of EAA, repeated experiment) was “just about abolished the biofilm”. For the same compound, the “reduction in ATP content in the biofilm” value ([9]; 1 mg/ml EAA) was 71%, the “percent reduction of ATP” value ([9]; 100 mg/ml EAA) was 105% and the mutagenicity [10] was “No mutagenicity was detected”. The “log reduction, total bacterial count” value ([11]; 0.5% EAA, 3 days at 10° C.) was 2.4, the “log reduction, total bacterial count” value ([11]; 0.5% of EAA, 1 day at 10° C.) was 0.65 and the “total bacterial count in the presence of EAA” value ([11]; 0.5% of EAA) was 7.8 log10. The “reduction of total bacterial count” value ([11]; 2.5% EAA, 5 days at 10° C.) was 4.3 logs, the “log reduction, total bacterial count” value ([11]; 2.5% of EAA, 1 day at 10° C.) was 2.1 and the “total bacterial count in the presence of EAA” value ([11]; 2.5% of EAA) was 6.6 log10. For the same compound, the “Different from 0% (concentrations grouping differently from untreated control, Fisher's LSD and t-test)” value ([11]; 0.5% EAA) was 0.5%, the “Different from 0% (concentrations grouping differently from untreated control, Fisher's LSD and t-test)” value ([11]; 2.5% EAA) was 2.5% and the “ATP content of P. aeruginosa biofilm” value ([12]; 100 mg/ml EAA, first experiment) was “not affected; also recorded: not reduced”. The “reduction of ATP” value ([12]; P. aeruginosa, 10 mg/ml of EAA) was 76%, the “ATP assay of the biofilm at the end of the two week incubation” value ([12]; P. aeruginosa, 100 mg/ml of EAA, repeated experiment) was “just about abolished the biofilm” and the “log reduction of planktonic growth” value ([13]; 25° C., 10 mg/ml EAA) was 1.7 log. The “reduction of planktonic growth, fold equivalent” value ([13]; 25° C., 10 mg/ml EAA) was 50 fold, the “log reduction of planktonic growth” value ([13]; 37° C., 5 mg/ml EAA) was 1.78 and the “reduction of planktonic growth, fold equivalent” value ([13]; 37° C., 5 mg/ml EAA) was 61 fold. For the same compound, the IC50 ([13]; 25° C.) was 3200 µg/mL (≈ 24.6 mM), the IC50 ([13]; 37° C.) was 2480 µg/mL (≈ 19.1 mM) and the “reduction of cell counts within the biofilm” value [14] was “about 3 logs”. The “reduction in biofilm biomass (CV), words” value ([15]; first experiment) was “no reduction”, the “biofilm biomass from the CV assay after EAA” value ([15]; repeated experiment, untreated 0.78) was 0.24 OD600 and the IC50 [16] was 5500 µg/mL (≈ 42.3 mM). The eye irritation [17] was “moderate eye irritation that was fully reversible after seven days”, the “reduction in the bacterial counts of S. enterica” value ([18]; 0.5% EAA, 10° C.) was “not observed” and the “log reduction, Salmonella enterica serovar Typhimurium” value ([18]; 0.5% w/w EAA, 3 days at 10° C.) was 0.2.
